Patent publication US20100216981A1 (Nippon Soda Co., Ltd., priority 2007, published 2010)

T1: tat synthetic peptide (arginine-rich portion) (Human immunodeficiency virus, UniProt P69698 SEQ:1-34)
T1 chain: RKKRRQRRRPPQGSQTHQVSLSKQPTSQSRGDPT

T2: 2b (PTGS suppressor) (Tomato aspermy virus, UniProt Q8UYT3 Q8UYT3:1-95)
T2 sequence: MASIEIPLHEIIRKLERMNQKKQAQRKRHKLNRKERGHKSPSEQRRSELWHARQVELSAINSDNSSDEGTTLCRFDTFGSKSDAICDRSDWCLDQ

T3: p19 (PTGS suppressor) (Tomato bushy stunt virus, UniProt P11690 P11690:1-172)
T3 sequence: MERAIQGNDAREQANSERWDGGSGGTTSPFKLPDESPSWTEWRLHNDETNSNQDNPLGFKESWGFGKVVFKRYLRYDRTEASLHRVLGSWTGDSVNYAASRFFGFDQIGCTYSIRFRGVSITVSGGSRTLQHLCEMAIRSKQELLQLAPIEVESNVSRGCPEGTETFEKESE

B1: biotinylated siRNA 21 bp (dsRNA)
RNA 1: UUGCUCAACAGUAUGGGCAUU
RNA 2: UGCCCAUACUGUUGAGCAAUU

Key:
[1] = biological target: synthetic peptide of tat (HIV tat) (Human immunodeficiency virus type 1 group M subtype B, UniProt P04610, P77S); experiment: Gel shift assay, inhibition of siRNA binding to synthetic peptide of tat; conditions: compound 100 ppm; synthetic peptide of tat 500 nM
PTGS-SP p19 of TBSV = PTGS-SP p19 of TBSV (Tomato bushy stunt virus, UniProt P11690); experiment: Surface plasmon resonance (Biacore) inhibition of siRNA binding to p19; conditions: read-out: Binding inhibition rate (%) Biacore p19 25 ppm
TAV-2b = TAV-2b (Tomato aspermy virus, UniProt Q8UYT3); experiment: Surface plasmon resonance (Biacore) inhibition of siRNA binding to TAV-2b; conditions: read-out: Binding inhibition rate (%) Biacore TAV2b 25 ppm
[2] = biological target: T1, tat synthetic peptide (arginine-rich …); experiment: EMSA; peptide 500 nM, siRNA 500 uM as printed, 0.005% BSA, 25 C; binding inhibited by small molecules; conditions: protein: synthetic; tags: chemically synthesised peptide, Biologica Co., 98% purity; label: 3'-biotin on sense strand; siRNA duplex of two 21-mers
2b (PTGS suppressor) = biological target: T2, 2b (PTGS suppressor); experiment: SPR; siRNA on SA chip; 10 mM HEPES pH 7.4, 150 mM NaCl, 3 mM EDTA; 2b about 10 ug/ml; free siRNA 0.1 uM competes (positive control); small molecules inhibit binding; conditions: tags: FLAG (MBP removed with Factor Xa); label: 3'-biotin on sense strand; siRNA duplex of two 21-mers
p19 (PTGS suppressor) = biological target: T3, p19 (PTGS suppressor); experiment: SPR; siRNA on SA chip; 10 mM HEPES pH 7.4, 150 mM NaCl, 3 mM EDTA; p19 about 10 ug/ml; free siRNA 0.1 uM competes (positive control); small molecules inhibit binding; conditions: tags: His-tag (pCold I), FLAG; chain copies: 2; label: 3'-biotin on sense strand; siRNA duplex of two 21-mers

Row | Molecule | Binding inhibition rate (%) Gel shift tat 100 ppm [1] [%] | inhibition at 25 ppm (PTGS-SP p19 of TBSV) [%] | inhibition at 25 ppm (TAV-2b) [%] | binding result [2] | binding result (2b (PTGS suppressor)) | binding result (p19 (PTGS suppressor))
1 | COc1c(OC)c(=O)c1=O [Compound 1] | 10 | 80 | 80 |  |  | 
2 | CC1(C)C(=O)C(C)(C)C1=O [Compound 2] |  | 75 | 0 |  |  | 
3 | CCOC(=O)C1CCCC1=O (centres unmarked) [Compound 3] |  | 0 | 90 |  |  | 
4 | CC(=O)C1CCCC1=O (centres unmarked) [Compound 4] |  | 20 | 90 |  |  | 
5 | O=C1C=CC(=O)C1 [Compound 5] | 100 | 100 | 100 |  |  | 
6 | O=C1CCc2ccccc2C1=O [Compound 6] | 100 | 100 | 100 |  |  | 
7 | O=C1CCSC1 [Compound 9] | 0 | 95 | 0 |  |  | 
8 | O=C1CCCCC1 [Compound 10] |  | 70 | 50 |  |  | 
9 | O=C1CCC(=O)CC1 [Compound 11] |  | 70 | 20 |  |  | 
10 | O=C1C=CC(=O)C=C1 [Compound 12] | 100 | 100 | 95 |  |  | 
11 | O=C1C=C(Cl)C(=O)C(Cl)=C1 [Compound 13] | 100 |  |  |  |  | 
12 | O=C1C=C(Cl)C(=O)C=C1Cl [Compound 14] | 100 |  |  |  |  | 
13 | O=C1C=C(O)C(=O)C=C1O [Compound 15] | 80 | 95 | 100 |  |  | 
14 | COC1=C(OC)C(=O)C(C)=CC1=O [Compound 16] | 0 | 80 | 0 |  |  | 
15 | O=c1c(O)c(O)c(=O)c(=O)c1=O [Compound 17] |  | 100 | 90 |  |  | 
16 | NC1=CC(=O)CCC1 [Compound 18] | 0 | 90 | 80 |  |  | 
17 | Cc1occc(=O)c1O [Compound 19] | 0 | 90 | 50 |  |  | 
18 | O=C1C=CC(=O)c2c(O)ccc(O)c21 [Compound 20] | 100 | 100 | 80 |  |  | 
19 | B1 |  |  |  | binds | binds | binds
